Target: PTEN (Homo sapiens, UniProt P60484)
Experiment: PTEN inhibition assay (malachite green phosphate release), IC50 determination
Type: biochemical
Settings: not given
Protocol: PTEN inhibitors are evaluated in an inhibition assay conducted in half-volume 96 well plates in 25 ul total volume per well containing 2 mM dithiothreitol (DTT) and 0.1 mM Tris buffer, pH 8.0 and up to 3 ug total protein of PTEN. Small volumes of the test inhibitor candidates (stock concentrated solutions of 25 mM in DMSO) are mixed with the PTEN solution at room temperature for about 10 minutes and then substrate is added. The reaction mix is then incubated in 37° C. for 20 minutes. Subsequent to this a 100 ul aliquot of malachite green buffer (Upstate, Charlottesville, Va.) is added to develop the color in the dark at room temperature (this solution also stops the dephosphorylation reaction). A SpectraMax Plus spectrophotometric plate reader (Molecular Devices, Sunnyvale, Calif.) is used to measure the optical density at 650 nanometers. […]
To determine the dose response of potential PTEN inhibitors, doses of test compounds ranging from 1 nM to 250 uM (final reaction mix concentrations) are evaluated in the general PTEN inhibition assay (supra). […] Once the concentration range is determined, at which PTEN activity changes dramatically, two additional concentration data points within this range are added and the PTEN inhibition assay is then rerun for the second round. […]

Chain of PTEN (P60484 whole entry, species assumed): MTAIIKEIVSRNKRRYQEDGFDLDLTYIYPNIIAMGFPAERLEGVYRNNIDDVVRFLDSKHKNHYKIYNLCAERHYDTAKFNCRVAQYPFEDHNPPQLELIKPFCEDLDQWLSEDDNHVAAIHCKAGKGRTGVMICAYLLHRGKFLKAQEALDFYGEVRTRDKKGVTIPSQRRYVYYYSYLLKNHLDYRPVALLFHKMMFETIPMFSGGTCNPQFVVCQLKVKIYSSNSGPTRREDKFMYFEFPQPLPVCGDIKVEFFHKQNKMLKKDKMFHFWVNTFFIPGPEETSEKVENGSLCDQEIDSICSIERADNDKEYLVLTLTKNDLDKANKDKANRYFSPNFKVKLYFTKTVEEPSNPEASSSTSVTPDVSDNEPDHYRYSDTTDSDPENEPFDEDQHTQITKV

IC50 [nM]	Compound
300	O=C(COc1ccccc1)Nc1cnc2c(c1)C(=O)C(=O)c1cccnc1-2
2000	CC(C)(C)C(=O)Nc1cnc2c(c1)C(=O)C(=O)c1cccnc1-2

Tested on: dorsal corticospinal tract (CST) axons
Experiment: Spinal injury (dorsal corticospinal tract transection) in rats, intrathecal or intravenous PTEN inhibitor
Type: in vivo, Sprague Dawley rats
Settings: intrathecal or intravenous administration, rat spinal injury model
From the text: Methodology for this animal study was adapted from Nash et al (J. Neurosci (2002) 22:7111-7120), Luo et al (Molecular Pain (2005) 1:29), and Obata et al (J. Neurosci. (2004) 24:10211-22).
Adult Sprague Dawley rats ([…]) are trained and tested in a directed forepaw reaching (DFR) apparatus which measures grasping ability. The apparatus, which is described in detail by Nash et al., supra, is a box that consists of two compartments: a main compartment for housing the rats and a minor compartment for the food, separated by a PLEXIGLAS™ divider. The minor compartment is subdivided into slots of equal size, each holding a pellet of food. Between the slots and the PLEXIGLAS™ there is a gap. The apparatus is configured such that in order to retrieve a food pellet from a slot, a rat must extend a forelimb through a hole in the PLEXIGLAS™ divider, and grasp the pellet and lift it over the gap and out of the slot. If the rat merely rakes the food in the slot towards the hole in the PLEXIGLAS™, the food will drop from the slot into the gap and fall to the floor of the minor compartment. The floor of the minor compartment can be configured to allow a rat to retrieve food that drops or it can be lowered to prevent the rat from reaching dropped food. Prior to inducing spinal injury, the rats are food restricted, receiving ˜[…] body weight per day, before and throughout training and testing. Weight is monitored to ensure that rats are reduced to no less than 80% of their original body weight at any time. All rats are given shaping periods for 2-3 d in the box to allow them to learn the task while they become familiar with the testing situation. Animals are trained twice per day for 5 d and then tested twice per day for 5 d, and presurgical DFR data is collected. During the testing period, rats are given 5 min to complete the task and are allowed to make as many attempts as they want during this time period. Rats are required to return to at least 95% of their original weight to ensure that they are healthy before undergoing surgery.
Rats are randomly assigned to control or experimental groups. Sham control rats undergo surgical procedure without lesioning, and with or without placement of a mini osmotic pump (Alzet type 2001; Durect, Cupertino, Calif.). Lesioned control rats receive no treatment, tail vein injection with vehicle only treatment, insertion of a mini osmotic pump only treatment, or insertion of a mini osmotic pump with vehicle only treatment. After anesthesia with isoflurane, the rats are placed on an operating board in such a way as to bend the cervical spinal cord for maximum exposure. A laminectomy is performed exposing the dorsum of the spinal cord between C2 and C4. […]

Compound	axonal regeneration after spinal injury
potassium bisperoxo(bipyridine)oxovanadate (V) [bpV(bipy)]	can be promoted
O.O.O=C([O-])c1ccccn1.OO.OO.[K+].[K+].[OH-].[V] [bpV(pic), dipotassium bisperoxo(picolinato)oxovanadate (V)]	can be promoted
dipotassium bisperoxo(5-hydroxypyridine-2-carboxyl)oxovanadate (V) [bpV(HOpic)]	can be promoted
O.O.O.OO.OO.[K+].[OH-].[V].c1cnc2c(c1)ccc1cccnc12 [bpV(phen), potassium bisperoxo(1,10-phenanthroline)oxovanadate (V)]	can be promoted

Source: patent US10117866B2, “Promoting axon regeneration in the adult CNS through control of protein translation” (CHILDREN'S MEDICAL CENTER CORPORATION, priority 2008, dated 2018)
